Source: US20070149505A1, “Method of Inhibiting Adhesion Formation” (SmithKline Beecham Corporation, priority 2001, published 2007)
Values joined by “and” are separate entries in the source; they are usually repeats but may differ in a detail not shown here. Identical values can stand only once.

Tested on: uterine horn adhesions
Assay: rabbit uterine horn model of adhesion formation, oral + local (gel) COMPOUND 1 study
Format: in vivo, New Zealand White rabbits
Parameters: key to tenacity of the adhesions score (in parentheses), Right Horn, Bowel / tenacity of the adhesions score (in parentheses), Right Horn, Itself / tenacity of the adhesions score (in parentheses), Left Horn, Itself / tenacity of the adhesions score (in parentheses), Right Horn, Left / tenacity of the adhesions score (in parentheses), Left Horn, Bowel / tenacity of the adhesions score (in parentheses), Left Horn, Right / tenacity of the adhesions score (in parentheses), Right Horn, Bladder / tenacity of the adhesions score (in parentheses), Left Horn, Bladder: 0=No Adhesions; 1=mild, easily dissectable adhesions; 2=moderate adhesions; non-dissectable, does not tear the organ; 3=dense adhesions; non-dissectable, tears organ when removed; key to Overall score: overall adhesion score; 1 = mild, 1.5+ slightly tougher/more extensive
Details: for Overall, (group summary): group value ± spread, overall scores analyzed by rank order analysis
Description: The compounds of the instant invention are tested in known models of adhesion formation. These test systems include a rabbit sidewall model of adhesion formation as described in Rogers, et al., J. Invest. Surg., 9:388-391 (1996) and Rodgers, et al., […], 69(3):403-408 (1998); a rat model for adhesion formation as described in Harris, et al., Surgery, 117:663-669 (1995); and a rabbit animal model used to examine laparoscopic adhesion prevention. The rabbit uterine horn model may also be used to test the use of the instant vitronectin inhibiting compounds as inhibitors of adhesion formation. The experimental details and results using this model are detailed below.
Animals: New Zealand White rabbits, 2.4-2.7 kg, were purchased and quarantined for at least 2 days prior to use. The rabbits were randomized into appropriate control and treatment groups (see experimental designs below). The rabbits were housed on a 12:12 light:dark cycle with food and water available ad libitum. Each treatment group in all studies contained 8-10 animals.
Adhesion Model: The animals that received COMPOUND 1 or vehicle according to the experimental design (below). The rabbits that received placebo at surgery received two doses of vehicle orally. Rabbits were anesthetized with a mixture of 55 mg/kg ketamine hydrochloride and 5 mg/kg Rompum intramuscularly. Following preparation for sterile surgery, a midline laparotomy was performed. The uterine horns were exteriorized and traumatized by abrasion of the serosal surface with gauze until punctate bleeding developed. Ischemia of both uterine horns was induced by removal of the collateral blood supply. The remaining blood supply to the uterine horns was the ascending branches of the utero-vaginal arterial supply of the myometrium. The midline muscle and skin incision were closed.
After 7 or 14 days, the rabbits were terminated and adhesions were scored on a site and rabbit basis. Specifically, the percentage of the area of the horns adherent to various organs was determined. In addition, the tenacity of the adhesions was scored using the following system:
1=mild, easily dissectable adhesions
3=dense adhesions; non-dissectable, tears organ when removed
An overall score which took into account all of the above data was given to each rabbit. The following scoring system was used:
0.5+ Light, filmy pelvic adhesions involving only one organ, typically only 1 or 2 small adhesions
1.0+ Light, filmy adhesions, not extensive although slightly more extensive than 0.5
1.5+ Adhesions slightly tougher and more extensive than a 1 rating
2.0+ Tougher adhesions, a little more extensive, uterine horns usually have adhesions to both bowel and bladder
2.5+ Same as 2, except the adhesions are usually not filmy at any site and more extensive
3.0+ Tougher adhesions than 2, more extensive, both horns are attached to the bowel and bladder, some movement of the uterus possible
3.5+ Same as 3, but adhesions slightly more extensive and tougher
4.0+ Severe adhesions, both horns attached to the bowel and bladder, unable to move the uterus without tearing the adhesions
The rabbits were scored by two independent observers that were blinded to the prior treatment of the animal. If there was disagreement as to the score to be assigned to an individual animal, the higher score was given.
Statistical Analysis: The tenacity and overall scores were analyzed by rank order analysis and analysis of variance on the ranks. The percentage area of the horns involved to the various organs were compared by Student's t test.
[…] received two loading doses of 60 mg/kg COMPOUND 1 orally prior to surgery. At the end of the procedure, the animals received either nothing (surgical control), or 12 ml of placebo (10% CMC) or one of two doses (1 mg/ml or 0.1 mg/ml) of COMPOUND 1 at the site of surgical injury.
Oral+local study: Two loading doses of COMPOUND 1 (60 mg/kg, po) were administered orally prior to surgery. […]

[1] = 0.1 mg/ml COMPOUND 1, 2 Week Necropsy Time (Table 4), group mean ± spread
[2] = 0.1 mg/ml COMPOUND 1, 2 Week Necropsy Time (Table 4), individual rabbit
[3] = 0.1 mg/ml COMPOUND 1, 2 Week Necropsy Time (Table 4), individual rabbit, dash = site adhesion free
[4] = 0.1 mg/ml COMPOUND 1, 2 Week Necropsy Time (Table 8), group mean ± spread
[5] = 0.1 mg/ml COMPOUND 1, 2 Week Necropsy Time (Table 8), individual rabbit
[6] = 0.1 mg/ml COMPOUND 1, 2 Week Necropsy Time (Table 8), individual rabbit, dash = site adhesion free
[7] = 0.1 mg/ml COMPOUND 1, listed after Control/Placebo 1 Week

Compound: O=C(O)C[C@@H]1Cc2ccc(OCCCNc3ccccn3)cc2CN(CC(F)(F)F)C1=O [COMPOUND 1, (S)-3-oxo-8-[3-(pyridin-2-ylamino)-1-propyloxy]-2-(2,2,2-trifluoroethyl)-2,3,4,5-tetrahydro-1H-2-benzazepine-4-acetic acid]
- % Horn Involved, Left Horn, Bladder [1]: 7.0 ± 5.0%
- % Horn Involved, Left Horn, Bowel [1]: 10.0 ± 4.2%
- % Horn Involved, Left Horn, Itself [1]: 22.0 ± 3.6%
- % Horn Involved, Left Horn, Right [1]: 21.0 ± 4.8%
- % Horn Involved, Right Horn, Bladder [1]: 9.0 ± 4.8%
- % Horn Involved, Right Horn, Bowel [1]: 10.0 ± 4.2%
- % Horn Involved, Right Horn, Itself [1]: 16.0 ± 5.0%
- % Horn Involved, Right Horn, Left [1]: 21.0 ± 4.8%
- Overall, (group summary) (0.1 mg/ml COMPOUND 1, 2 Week Necropsy Time (Table 4)): 30.2 ± 6.2
- Overall score [2]: 1.5 (3×) and 2.0 (2×) and 1.0 (2×) and 0.5 and 2.5 (2×)
- tenacity of the adhesions score (in parentheses), Left Horn, Bladder [2]: 1
- tenacity of the adhesions score (in parentheses), Left Horn, Bowel [2]: 1
- tenacity of the adhesions score (in parentheses), Left Horn, Itself [2]: 1 (7×) and 2 (2×)
- tenacity of the adhesions score (in parentheses), Left Horn, Right [2]: 1 (6×) and 2 (2×)
- tenacity of the adhesions score (in parentheses), Right Horn, Bladder [2]: 1
- tenacity of the adhesions score (in parentheses), Right Horn, Bowel [2]: 1
- tenacity of the adhesions score (in parentheses), Right Horn, Itself [2]: 1 (4×) and 2 (2×)
- tenacity of the adhesions score (in parentheses), Right Horn, Left [2]: 1 (6×) and 2 (2×)
- % Horn Involved, Left Horn, Bladder [3]: 10% (2×) and 50%
- % Horn Involved, Left Horn, Bowel [3]: 10% (2×) and 20% (2×) and 40%
- % Horn Involved, Left Horn, Itself [3]: 40% and 30% (3×) and 20% (4×) and 10%
- % Horn Involved, Left Horn, Right [3]: 30% (3×) and 40% (2×) and 20% and 10% (2×)
- % Horn Involved, Right Horn, Bladder [3]: 10% (4×) and 50%
- % Horn Involved, Right Horn, Bowel [3]: 10% (2×) and 20% (2×) and 40%
- % Horn Involved, Right Horn, Itself [3]: 40% and 30% (3×) and 10% and 20%
- % Horn Involved, Right Horn, Left [3]: 30% (3×) and 40% (2×) and 20% and 10% (2×)
- % Horn Involved, Left Horn, Bladder [4]: 7.0 ± 3.4%
- % Horn Involved, Left Horn, Bowel [4]: 15.0 ± 5.0%
- % Horn Involved, Left Horn, Itself [4]: 23.0 ± 5.6%
- % Horn Involved, Left Horn, Right [4]: 15.0 ± 4.8%
- % Horn Involved, Right Horn, Bladder [4]: 7.0 ± 3.4%
- % Horn Involved, Right Horn, Bowel [4]: 13.0 ± 4.7%
- % Horn Involved, Right Horn, Itself [4]: 11.0 ± 3.5%
- % Horn Involved, Right Horn, Left [4]: 15.0 ± 4.8%
- Overall, (group summary) (0.1 mg/ml COMPOUND 1, 2 Week Necropsy Time (Table 8)): 22.0 ± 4.8
- Overall score [5]: 2.0 (2×) and 1.5 (4×) and 1.0 (2×) and 0.5 (2×)
- tenacity of the adhesions score (in parentheses), Left Horn, Bladder [5]: 1
- tenacity of the adhesions score (in parentheses), Left Horn, Bowel [5]: 1
- tenacity of the adhesions score (in parentheses), Left Horn, Itself [5]: 1
- tenacity of the adhesions score (in parentheses), Left Horn, Right [5]: 1
- tenacity of the adhesions score (in parentheses), Right Horn, Bladder [5]: 1
- tenacity of the adhesions score (in parentheses), Right Horn, Bowel [5]: 1
- tenacity of the adhesions score (in parentheses), Right Horn, Itself [5]: 1
- tenacity of the adhesions score (in parentheses), Right Horn, Left [5]: 1
- % Horn Involved, Left Horn, Bladder [6]: 30% and 10% (2×) and 20%
- % Horn Involved, Left Horn, Bowel [6]: 40% and 30% (3×) and 10% (2×)
- % Horn Involved, Left Horn, Itself [6]: 30% (4×) and 50% and 20% and 40%
- % Horn Involved, Left Horn, Right [6]: 10% and 40% and 30% (2×) and 20% (2×)
- % Horn Involved, Right Horn, Bladder [6]: 30% and 10% (2×) and 20%
- % Horn Involved, Right Horn, Bowel [6]: 40% and 30% (2×) and 10% (3×)
- % Horn Involved, Right Horn, Itself [6]: 30% (2×) and 10% (5×)
- % Horn Involved, Right Horn, Left [6]: 10% and 40% and 30% (2×) and 20% (2×)
- # Sites Adhesion Free [7]: 34
- % Sites Adhesion Free [7]: 42.5%
- # Sites Adhesion Free (0.1 mg/ml COMPOUND 1, listed after Control/Placebo 2 Weeks): 31
